Here are results for 17 compounds from patent US20250179103A1, “6-OXODECAHYDROPYRROLO[1,2-A][1,5]DIAZOCINE AND 6-OXODECAHYDRO-4H-PYRROLO[2,1-D][1,5]THIAZOCINE DERIVATIVES AS STAT3 AND STAT6 MODULATORS FOR THE TREATMENT OF CANCER AND INFLAMMATORY CONDITIONS” (Recludix Pharma, Inc., priority 2022, published 2025).

Molecules are shown by their SMILES.

Assay [1] has as its target T1, Recombinant STAT3 protein (STAT3(G127-I722)) (Homo sapiens, UniProt P40763).
T1 construct: Recombinant STAT3 protein (STAT3(G127-I722))
As to the kind of experiment: STAT3 Fluorescence Polarization (FP) Assay. In kind it is binding. Particulars: STAT3(G127-I722) 25 nM, probe 5-FAM-GpYLPQTV-NH2 2 nM, 45-minute incubation. The method, boiled down: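 Fluorescence polarization after a 45-min room-temperature incubation measured compound displacement of a 2 nM fluorescein-labelled phosphotyrosine peptide (5-FAM-GpYLPQTV-NH2) from 25 nM recombinant STAT3(G127-I722). Buffer was 10 mM HEPES pH 7.4 with 1% DMSO final. IC50s were fitted by nonlinear regression of mP against log concentration.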

In assay [2] the target is T2, Recombinant STAT6 protein (STAT6(W123-T658)) (Homo sapiens, UniProt P42226).
T2 construct: Recombinant STAT6 protein (STAT6(W123-T658))
T2 sequence (P42226 123-658): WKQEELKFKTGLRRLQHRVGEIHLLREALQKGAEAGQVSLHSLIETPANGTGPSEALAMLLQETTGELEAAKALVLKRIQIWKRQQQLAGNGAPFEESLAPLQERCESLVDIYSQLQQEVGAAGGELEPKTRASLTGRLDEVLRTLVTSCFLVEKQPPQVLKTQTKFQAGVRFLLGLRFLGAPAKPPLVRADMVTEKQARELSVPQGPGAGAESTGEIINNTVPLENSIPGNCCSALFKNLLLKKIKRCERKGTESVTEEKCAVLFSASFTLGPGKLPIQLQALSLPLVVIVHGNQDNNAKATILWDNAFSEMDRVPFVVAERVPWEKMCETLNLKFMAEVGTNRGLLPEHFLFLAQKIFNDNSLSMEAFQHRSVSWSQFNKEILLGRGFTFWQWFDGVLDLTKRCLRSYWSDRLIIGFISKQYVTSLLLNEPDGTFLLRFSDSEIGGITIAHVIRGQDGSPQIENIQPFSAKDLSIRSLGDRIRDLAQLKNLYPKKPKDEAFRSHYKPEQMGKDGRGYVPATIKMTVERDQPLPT
As to the kind of experiment: STAT6 Fluorescence Polarization (FP) Assay. In kind it is binding. The note with it: STAT6(W123-T658) 250 nM, probe 5-FAM-ApYKPFQDLI-NH2 2 nM, 45-minute incubation. The method in brief: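 Displacement of a fluorescent phosphotyrosine peptide (5-FAM-ApYKPFQDLI-NH2, 2 nM) from STAT6(W123-T658) (250 nM), 1% DMSO, pH 7.4 HEPES buffer. After 45 min at room temperature, polarization (mP) was plotted versus log compound concentration and fitted by nonlinear regression to give IC50.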

T1 sequence (P40763 127-722): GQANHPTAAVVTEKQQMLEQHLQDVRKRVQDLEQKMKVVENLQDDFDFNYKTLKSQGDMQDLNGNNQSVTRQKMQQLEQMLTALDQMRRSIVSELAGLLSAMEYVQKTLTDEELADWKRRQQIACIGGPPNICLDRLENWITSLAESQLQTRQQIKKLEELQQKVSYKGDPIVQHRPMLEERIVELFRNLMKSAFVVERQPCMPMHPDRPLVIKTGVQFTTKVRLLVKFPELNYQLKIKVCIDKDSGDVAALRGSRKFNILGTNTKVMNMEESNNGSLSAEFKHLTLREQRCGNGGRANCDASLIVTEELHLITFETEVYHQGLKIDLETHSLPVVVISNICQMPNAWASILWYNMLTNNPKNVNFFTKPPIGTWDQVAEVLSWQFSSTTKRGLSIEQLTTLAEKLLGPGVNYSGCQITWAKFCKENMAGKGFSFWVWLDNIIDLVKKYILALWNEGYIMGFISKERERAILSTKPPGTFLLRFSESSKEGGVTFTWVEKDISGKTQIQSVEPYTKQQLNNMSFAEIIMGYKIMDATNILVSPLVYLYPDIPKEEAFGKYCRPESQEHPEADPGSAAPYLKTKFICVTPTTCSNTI

As a reminder, the IC50 is the concentration that inhibits the measured activity by half. In the case of `CC(=O)N1CC[C@H]2CC[C@@H](C(=O)N3CC(Oc4ccccc4)C3)N2C(=O)[C@@H](NC(=O)c2cc3cc(C(F)(F)P(=O)(O)O)ccc3[nH]2)C1` [Compound 99, ((2-(((5S,8S,10aR)-3-acetyl-6-oxo-8-(3-phenoxyazetidine-1-carbonyl)decahydropyrrolo[1,2-a][1,5]diazocin-5-yl)carbamoyl)-1H-indol-5-yl)difluoromethyl)phosphonic acid], the results for the IC50 in assay [1] and in assay [2] were 100 to 1000 nM and 0.3 to 3 µM, respectively.

In the case of `CC(=O)N1CC[C@H]2CC[C@@H](C(=O)N3CC(c4ccccc4)C3)N2C(=O)[C@@H](NC(=O)c2cc3cc(C(F)(F)P(=O)(O)O)ccc3[nH]2)C1` [Compound 100, ((2-(((5S,8S,10aR)-3-acetyl-6-oxo-8-(3-phenylazetidine-1-carbonyl)decahydropyrrolo[1,2-a][1,5]diazocin-5-yl)carbamoyl)-1H-indol-5-yl)difluoromethyl)phosphonic acid], the IC50 lay in the range of 100 to 1000 nM in assay [1] and 0.3 to 3 µM in assay [2].

`CCOc1ccc(N(C)C(=O)[C@@H]2CC[C@@H]3CCN(C(C)=O)C[C@H](NC(=O)c4cc5cc(C(F)(F)P(=O)(O)O)ccc5[nH]4)C(=O)N32)cc1` [Compound 101, ((2-(((5S,8S,10aR)-3-acetyl-8-((4-ethoxyphenyl)(methyl)carbamoyl)-6-oxodecahydropyrrolo[1,2-a][1,5]diazocin-5-yl)carbamoyl)-1H-indol-5-yl)difluoromethyl)phosphonic acid]: the half-maximal inhibitory concentration (IC50) in assay [1] was in the range of 1000 to 10000 nM; in assay [2], 0.3 to 3 µM.

Turning to `CC(=O)N1CC[C@H]2CC[C@@H](C(=O)N(C)c3ccc(OCCN(C)C)cc3)N2C(=O)[C@@H](NC(=O)c2cc3cc(C(F)(F)P(=O)(O)O)ccc3[nH]2)C1` [Compound 102, ((2-(((5S,8S,10aR)-3-acetyl-8-((4-(2-(dimethylamino)ethoxy)phenyl)(methyl)carbamoyl)-6-oxodecahydropyrrolo[1,2-a][1,5]diazocin-5-yl)carbamoyl)-1H-indol-5-yl)difluoromethyl)phosphonic acid], the IC50 in assay [1] is 1000 to 10000 nM; in assay [2] it was 0.3 to 3 µM.

For the compound `CC(=O)N1CC[C@H]2CC[C@@H](C(=O)Nc3ccc(-n4ccccc4=O)cc3)N2C(=O)[C@@H](NC(=O)c2cc3cc(C(F)(F)P(=O)(O)O)ccc3[nH]2)C1` [Compound 103, ((2-(((5S,8S,10aR)-3-acetyl-6-oxo-8-((4-(2-oxopyridin-1(2H)-yl)phenyl)carbamoyl)decahydropyrrolo[1,2-a][1,5]diazocin-5-yl)carbamoyl)-1H-indol-5-yl)difluoromethyl)phosphonic acid], the IC50 was 1000 to 10000 nM in assay [1] and 3 to 30 µM in assay [2].

As for `CC(=O)N1CC[C@H]2CC[C@@H](C(=O)N3CCC3Cc3ccccc3)N2C(=O)[C@@H](NC(=O)c2cc3cc(C(F)(F)P(=O)(O)O)ccc3[nH]2)C1` (stereo partly drawn) [Compound 104, ((2-(((5S,8S,10aR)-3-acetyl-8-(2-benzylazetidine-1-carbonyl)-6-oxodecahydropyrrolo[1,2-a][1,5]diazocin-5-yl)carbamoyl)-1H-indol-5-yl)difluoromethyl)phosphonic acid], the IC50 in assay [1] was 1000 to 10000 nM; in assay [2] it was 0.3 to 3 µM.

Consider `CC(=O)N1CC[C@H]2CC[C@@H](C(=O)Nc3ccn(-c4ccccc4)c(=O)c3C#N)N2C(=O)[C@@H](NC(=O)c2cc3cc(C(F)(F)P(=O)(O)O)ccc3[nH]2)C1` [Compound 105, ((2-(((5S,8S,10aR)-3-acetyl-8-((3-cyano-2-oxo-1-phenyl-1,2-dihydropyridin-4-yl)carbamoyl)-6-oxodecahydropyrrolo[1,2-a][1,5]diazocin-5-yl)carbamoyl)-1H-indol-5-yl)difluoromethyl)phosphonic acid], for which the results for the IC50 in assay [1] and in assay [2] were 100 to 1000 nM and 0.3 to 3 µM, respectively.

As to `CC(=O)N1CC[C@H]2CC[C@@H](C(=O)N3CCCC[C@H]3Cc3ccccc3)N2C(=O)[C@@H](NC(=O)c2cc3cc(C(F)(F)P(=O)(O)O)ccc3[nH]2)C1` [Compound 106, ((2-(((5S,8S,10aR)-3-acetyl-8-((S)-2-benzylpiperidine-1-carbonyl)-6-oxodecahydropyrrolo[1,2-a][1,5]diazocin-5-yl)carbamoyl)-1H-indol-5-yl)difluoromethyl)phosphonic acid], the IC50 was 1000 to 10000 nM in assay [1] and 0.3 to 3 µM in assay [2].

For the compound `CC(=O)N1CC[C@H]2CC[C@@H](C(=O)N3CCC[C@@H](c4ccccc4)C3)N2C(=O)[C@@H](NC(=O)c2cc3cc(C(F)(F)P(=O)(O)O)ccc3[nH]2)C1` [Compound 107, ((2-(((5S,8S,10aR)-3-acetyl-6-oxo-8-((S)-3-phenylpiperidine-1-carbonyl)decahydropyrrolo[1,2-a][1,5]diazocin-5-yl)carbamoyl)-1H-indol-5-yl)difluoromethyl)phosphonic acid], the IC50 in assay [1] is 1000 to 10000 nM; in assay [2] it was at most 0.3 µM.

Turning to `CC(=O)N1CC[C@H]2CC[C@@H](C(=O)N(C)c3ccccc3C#N)N2C(=O)[C@@H](NC(=O)c2cc3cc(C(F)(F)P(=O)(O)O)ccc3[nH]2)C1` [Compound 108, ((2-(((5S,8S,10aR)-3-acetyl-8-((2-cyanophenyl)(methyl)carbamoyl)-6-oxodecahydropyrrolo[1,2-a][1,5]diazocin-5-yl)carbamoyl)-1H-indol-5-yl)difluoromethyl)phosphonic acid], the IC50 lay in the range of 1000 to 10000 nM in assay [1] and 0.3 to 3 µM in assay [2].

Take `CC(=O)N1CC[C@H]2CC[C@@H](C(=O)N(C)c3ccccc3)N2C(=O)[C@@H](NC(=O)c2cc3cc(C(F)(F)P(=O)(O)O)ccc3s2)C1` [Compound 109, ((2-(((5S,8S,10aR)-3-acetyl-8-(methyl(phenyl)carbamoyl)-6-oxodecahydropyrrolo[1,2-a][1,5]diazocin-5-yl)carbamoyl)benzo[b]thiophen-5-yl)difluoromethyl)phosphonic acid]: the IC50 fell in the range of 1000 to 10000 nM in assay [1] and 0.3 to 3 µM in assay [2].

For the compound `CC(=O)N1CC[C@H]2CC[C@@H](C(=O)N(C)c3ccccc3)N2C(=O)[C@@H](NC(=O)c2cc3cc(C(F)(F)P(=O)(O)O)cnc3s2)C1` [Compound 110, ((2-(((5S,8S,10aR)-3-acetyl-8-(methyl(phenyl)carbamoyl)-6-oxodecahydropyrrolo[1,2-a][1,5]diazocin-5-yl)carbamoyl)thieno[2,3-b]pyridin-5-yl)difluoromethyl)phosphonic acid], the IC50 in assay [1] lay in the range of 1000 to 10000 nM; in assay [2], 3 to 30 µM.

For the compound `CC(=O)N1CC[C@H]2CC[C@@H](C(=O)N(C)c3ccccc3)N2C(=O)[C@@H](NC(=O)c2ccc3ccc(C(F)(F)P(=O)(O)O)cc3c2)C1` [Compound 111, ((7-(((5S,8S,10aR)-3-acetyl-8-(methyl(phenyl)carbamoyl)-6-oxodecahydropyrrolo[1,2-a][1,5]diazocin-5-yl)carbamoyl)naphthalen-2-yl)difluoromethyl)phosphonic acid], the IC50 in assay [1] is above 10000 nM; in assay [2], 0.3 to 3 µM.

On to `CC(=O)N1CC[C@H]2CC[C@@H](C(=O)N(C)c3ccccc3)N2C(=O)[C@@H](NC(=O)c2ccc3cc(C(F)(F)P(=O)(O)O)ccc3c2)C1` [Compound 112, ((6-(((5S,8S,10aR)-3-acetyl-8-(methyl(phenyl)carbamoyl)-6-oxodecahydropyrrolo[1,2-a][1,5]diazocin-5-yl)carbamoyl)naphthalen-2-yl)difluoromethyl)phosphonic acid], for which the results for the IC50 in assay [1] and in assay [2] were above 10000 nM and above 30 µM, respectively.

Regarding `CC(=O)N1CC[C@H]2CC[C@@H](C(=O)N(C)c3ccccc3)N2C(=O)[C@@H](NC(=O)c2ccc3cc(P(=O)(O)O)ccc3c2)C1` [Compound 113, (6-(((5S,8S,10aR)-3-acetyl-8-(methyl(phenyl)carbamoyl)-6-oxodecahydropyrrolo[1,2-a][1,5]diazocin-5-yl)carbamoyl)naphthalen-2-yl)phosphonic acid], the IC50 in assay [1] was above 10000 nM; in assay [2], above 30 µM.

Turning to `CC(=O)N1CC[C@H]2CC[C@@H](C(=O)N(C)c3ccccc3)N2C(=O)[C@@H](NC(=O)c2ccc3ccc(P(=O)(O)O)cc3c2)C1` [Compound 114, (7-(((5S,8S,10aR)-3-acetyl-8-(methyl(phenyl)carbamoyl)-6-oxodecahydropyrrolo[1,2-a][1,5]diazocin-5-yl)carbamoyl)naphthalen-2-yl)phosphonic acid], the IC50 in assay [1] is above 10000 nM; in assay [2], above 30 µM.

Turning to `CC(=O)N1CC[C@H]2CC[C@@H](C(=O)N(C)c3ccccc3)N2C(=O)[C@@H](NC(=O)c2nc3cc(C(F)(F)P(=O)(O)O)ccc3s2)C1` [Compound 115, ((2-(((5S,8S,10aR)-3-acetyl-8-(methyl(phenyl)carbamoyl)-6-oxodecahydropyrrolo[1,2-a][1,5]diazocin-5-yl)carbamoyl)benzo[d]thiazol-5-yl)difluoromethyl)phosphonic acid], the IC50 in assay [1] is above 10000 nM; in assay [2], 0.3 to 3 µM.
